# Laboratory results taken from article PMC8911579, “(−)-Naringenin 4′,7-dimethyl Ether Isolated from Nardostachys jatamansi Relieves Pain through Inhibition of Multiple Channels” (Molecules, 2022).
# Columns and labels:
# [1] = system: endocannabinoid receptors; design: method as in PMID 25686780; settings: radioligand binding; cited from earlier work
# pro-inflammatory factors = system: pro-inflammatory factors; design: method as in PMID 30193010; settings: compared to other naringenin derivatives; cited from earlier work
# pain = system: pain; design: method as in PMID 30193010; settings: in vivo; cited from earlier work
# opioid receptors = system: opioid receptors; design: method as in PMID 25686780; settings: radioligand binding; cited from earlier work
# TRPA1 channels = biological target: T1, TRPA1 channels (Homo sapiens, UniProt O75762); assay: whole-cell patch-clamp, TRPA1 stably expressed in HEK293 cells; assay type: cell-based
# T1 construct: expressed in transfected cells
# T1 sequence (O75762 whole entry): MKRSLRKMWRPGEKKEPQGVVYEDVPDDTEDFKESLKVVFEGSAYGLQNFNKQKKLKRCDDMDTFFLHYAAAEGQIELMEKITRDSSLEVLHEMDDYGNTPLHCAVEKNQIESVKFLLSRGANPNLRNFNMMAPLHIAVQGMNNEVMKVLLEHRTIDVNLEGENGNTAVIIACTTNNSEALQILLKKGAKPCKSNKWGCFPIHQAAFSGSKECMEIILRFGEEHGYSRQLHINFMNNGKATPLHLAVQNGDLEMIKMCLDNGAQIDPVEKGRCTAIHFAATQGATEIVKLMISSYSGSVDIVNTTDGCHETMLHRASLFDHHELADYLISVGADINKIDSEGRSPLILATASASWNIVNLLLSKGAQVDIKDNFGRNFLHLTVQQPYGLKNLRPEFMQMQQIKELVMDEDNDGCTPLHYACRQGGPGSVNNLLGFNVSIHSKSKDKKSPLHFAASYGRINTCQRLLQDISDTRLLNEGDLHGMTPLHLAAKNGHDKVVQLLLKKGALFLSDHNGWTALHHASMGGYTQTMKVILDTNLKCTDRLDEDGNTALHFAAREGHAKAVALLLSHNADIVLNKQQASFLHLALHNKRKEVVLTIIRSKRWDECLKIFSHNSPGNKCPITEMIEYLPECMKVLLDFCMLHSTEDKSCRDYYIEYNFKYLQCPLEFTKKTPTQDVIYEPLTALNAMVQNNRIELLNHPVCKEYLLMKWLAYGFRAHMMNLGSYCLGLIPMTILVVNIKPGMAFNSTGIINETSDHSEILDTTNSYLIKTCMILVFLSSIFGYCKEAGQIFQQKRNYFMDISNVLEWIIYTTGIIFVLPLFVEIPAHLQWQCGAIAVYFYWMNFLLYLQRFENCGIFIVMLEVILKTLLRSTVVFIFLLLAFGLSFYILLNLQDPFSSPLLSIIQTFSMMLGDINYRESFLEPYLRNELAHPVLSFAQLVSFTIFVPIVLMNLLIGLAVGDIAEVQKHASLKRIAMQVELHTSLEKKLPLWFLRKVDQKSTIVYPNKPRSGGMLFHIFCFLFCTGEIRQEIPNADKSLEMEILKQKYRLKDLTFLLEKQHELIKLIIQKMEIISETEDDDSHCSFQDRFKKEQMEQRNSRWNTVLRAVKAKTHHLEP
# sleep = system: sleep; design: method as in PMID 34747100; settings: extracted from peanut stem and leaf; cited from earlier work
# [2] = system: Nav channels and Kv channels in cortical neurons; design: method as in PMID 34747100; settings: cited from earlier work
compound,measurement,setting,value
"COc1ccc([C@@H]2CC(=O)c3c(O)cc(OC)cc3O2)cc1 [(+)-NRG-DM, (+)-naringenin 4′,7-dimethyl ether]",affinity,[1],does not show affinity
same,production and release of pro-inflammatory factors,pro-inflammatory factors,did not influence the production and release of pro-inflammatory factors
same,analgesic activity,pain,showed analgesic activity
same,affinity,opioid receptors,does not show affinity
"C=CCN=C=S [AITC, allyl isothiocyanate]",effect on TRPA1 currents,"TRPA1 channels; 10 µM, TRPA1 channel activator",induced
CC(C)c1ccc(NC(=O)Cn2cnc3c2c(=O)n(C)c(=O)n3C)cc1 [HC030031],effect on TRPA1 currents,"TRPA1 channels; 30 µM, TRPA1 channel inhibitor",inhibited
COc1ccc([C@@H]2CC(=O)c3c(O)cc(OC)cc3O2)cc1 [NRG-DM],sleep,sleep,promoted sleep
same,inhibitory activity on Nav channels versus Kv channels,[2],more potent than that on Kv channels
